Results published in EPA's ToxValDB 9.5.

Columns and labels:
[1] = system: Rattus norvegicus; conditions: repeat dose other; oral
[2] = system: Rattus norvegicus; conditions: oral
[3] = system: Rattus norvegicus; conditions: oral; remark: listed apart in the source
[4] = system: Mus musculus; conditions: oral
[5] = system: Mus musculus; conditions: oral, gavage, M/F
[6] = system: Rattus norvegicus; conditions: subchronic
[7] = system: Mus musculus; conditions: reproduction developmental, oral, generation: P0
[8] = system: Rattus norvegicus; conditions: developmental, oral, gavage, generation: F1
[9] = system: Rattus norvegicus; conditions: subchronic, oral
[10] = system: Rattus norvegicus; conditions: oral; remark: listed apart in the source
[11] = subchronic, M, liver/body weight ratio and hepatic microsomal enzyme induction
[12] = subchronic, M/F, hypoactivity and ataxia
[13] = subchronic, M/F, hepatotoxicity

Clc1cc2c(oc3cc(Cl)c(Cl)c(Cl)c32)c(Cl)c1Cl [1,2,3,6,7,8-Hexachlorodibenzofuran]
LOAEL [1]: 0.0016 mg/kg-day | NOAEL [1]: 0.00016 mg/kg-day

Brc1ccc(Br)cc1 [1,4-Dibromobenzene]
LOAEL [2, 11]: 20 mg/kg-day | NOAEL [2, 11]: 10 mg/kg-day | NOAEL ([3]; subchronic, duration: 45 days, gavage, Liver: Altered enzyme activities + Liver: Increased relative weight): 10 mg/kg-day

Brc1c(Br)c(Br)c(Oc2c(Br)c(Br)c(Br)c(Br)c2Br)c(Br)c1Br [2,2',3,3',4,4',5,5',6,6'-Decabromodiphenyl ether]
LOAEL ([4]; developmental, gavage, M, neurobehavioral effects): 20.1 mg/kg-day | NOAEL ([4]; developmental, gavage, neurobehavioral effects): 2.22 mg/kg-day | NOAEL ([5]; developmental, duration: 1 days, NMRI, developmental): 1.34 mg/kg-day | LOAEL ([6]; duration: 8 weeks, oral, gavage, M, Sprague-Dawley, endocrine): 0.05 mg/kg-day | NOEL ([3]; chronic, duration: 2 years, diet, Liver: Increased weight): 1 mg/kg-day | LOEL ([7]; M/F, C57BL/6, P0: Operant test (fixed interval schedule, index of curvature, last block) + P0: Operant test (fixed interval schedule, index of curvature, …): 6 mg/kg-day | LOEL ([7]; M/F, C57BL/6, P0: Operant test (fixed interval schedule, overall response rate, first block) + P0: Operant test (fixed interval schedule, overall response…): 20 mg/kg-day | LOEL ([7]; M, Apoe3, P0: Morris water maze (swim distance in target quadrant)): 10 mg/kg-day | LOEL ([7]; M, Swiss Albino, P0: Morris water maze (latency, last trial) + P0: Morris water maze (latency, significant trial) + P0: Morris water maze (time spent in …): 20 mg/kg-day | LOEL ([8]; M/F, Crl:CD(SD), F1: Water T maze (learning error)): 1000 mg/kg-day | LOEL ([8]; M, Sprague-Dawley, F1: Morris water maze (latency, last trial) + F1: Morris water maze (latency, significant trial)): 30 mg/kg-day

O=C1C=CC(=O)O1 [2,5-Furandione]
NOAEL ([9]; duration: 90 days, diet, M/F, Sprague-Dawley, Urinalysis: Pro increase + Absolute Organ Weight: Kidney increase + Relative Organ Weight: Liver increase, Kidney increase + Necropsy: …): < 100 mg/kg-day | NOAEL ([2]; chronic, M/F, no effects): 10 mg/kg-day | LOAEL ([2]; reproduction developmental, M/F, renal lesions): 20 mg/kg-day | NOAEL ([3]; chronic, duration: 2 years, diet, Kidney: Lesions): 10 mg/kg-day

CC(C)CO [2-Methyl-1-propanol]
NOAEL ([9]; duration: 90 days, gavage, M/F, CD, Deaths + Clinical Observation: Hypoactivity Ataxia Salivation Labored respiration Rales Prostration Hypothermia Emaciation + Body Weight …): 316 mg/kg-day | NOAEL ([9]; drinking water, Wistar): 2430 mg/kg-day | LOAEL [2, 12]: 1000 mg/kg-day | NOEL [2, 12]: 316 mg/kg-day | NOEL ([3]; subchronic, duration: 13 weeks, gavage, Nervous system: Ataxia + Nervous system: Hypoactivity): 316 mg/kg-day

OCC(O)CCl (centres undefined) [3-Chloro-1,2-propanediol]
LOEL ([10]; chronic, drinking water, Fischer 344, Kidney proximule tubule hyperplasia): 1.1 mg/kg-day

S=C1NCCN1 [4,5-Dihydro-2-mercaptoimidazole]
NOEL ([9]; duration: 13 weeks, diet, M/F, Fischer 344, Body Weight Changes: decrease + Food Consumption: decrease + Histopathology: Thyroid-Diffuse follicular cell hyperplasia Thyroid-Focal …): < 5.76 mg/kg-day | LOAEL ([2]; chronic, duration: 24 months, diet, M/F, increased incidence of thyroid hyperplasia): 0.25 mg/kg-day | LOAEL ([3]; chronic, duration: 24 months, diet, Thyroid: Hyperplasia): 0.25 mg/kg-day

c1cc2c3c(cccc3c1)CC2 [Acenaphthene]
LOAEL [4, 13]: 350 mg/kg-day | NOAEL [4, 13]: 175 mg/kg-day | LOAEL ([5]; subchronic, duration: 90 days, CD1, hepatic): 175 mg/kg-day

[Al+3].[P-3] [Aluminum phosphide]
NOAEL ([2]; chronic, M/F, body weight and clinical parameters): 0.043 mg/kg-day | NOAEL ([3]; chronic, duration: 2 years, diet, Unspecified: Altered clinical parameters + Whole body: Altered weight): 0.43 mg/kg-day

[O]=[Sb](=[O])[O][Sb](=[O])=[O] [Antimony pentoxide]
LOAEL ([3]; chronic, drinking water, blood: Altered chemistries + Whole body: Increased mortality): 0.46 mg/kg-day

[Ba+2].[Cl-].[Cl-] [Barium chloride]
NOAEL [1]: 5.1 mg/kg-day

N#Cc1cc(Br)c(O)c(Br)c1 [Bromoxynil]
NOEL ([2]; chronic, duration: 2 years, diet, M/F, no effects): 5 mg/kg-day | NOEL ([3]; chronic, duration: 2 years, diet, None Observed): 5 mg/kg-day

Nc1cc(Cl)cc(C(=O)O)c1Cl [Chloramben]
LEL ([4]; chronic, duration: 18 months, diet, M/F, CD1, hepatocyte degeneration): 15 mg/kg-day

NCl [Chloramine]
NOAEL ([2]; chronic, M/F, no effects): 9.5 mg/kg-day | NOAEL ([3]; chronic, duration: 2 years, drinking water, Kidney: Weight changes + Liver: Weight changes + Whole body: Weight changes): 9.5 mg/kg-day

[Cr+3] [Chromium (III)]
LOAEL ([6]; duration: 13 weeks, inhalation, nose only, M/F, Fisher 344/Crl BR VAF/Plus, respiratory): 3 mg/m3 | NOEL (% CrO3) ([3]; chronic, duration: 840 days, diet, None Observed): 5

[Cr+6] [Chromium (VI) ion]
LOAEL [1]: 13.1 mg/kg-day | NOAEL [1]: 3.28 mg/kg-day | NOAEL ([2]; chronic, duration: 1 years, drinking water, M/F, no effects): 25 mg/L | NOAEL ([3]; chronic, duration: 1 years, drinking water, None Observed): 2.4 mg/kg-day

N#CC#N [Cyanogen]
NOAEL ([3]; chronic, duration: 2 years, diet, Nerve: Myelin degeneration + Thyroid: Effects + Whole body: Decreased weight): 21.6 mg/kg-day

C[C@@H]1C[C@H]2[C@@H]3CCC4=CC(=O)C=C[C@]4(C)[C@@]3(F)[C@@H](O)C[C@]2(C)[C@@]1(O)C(=O)CO [Dexamethasone]
NOEL ([10]; short-term, gavage, Induction of hepatic tyrosine aminotransferase activity): 0.0015 mg/kg-day
